Data published in patent US20020155106A1 (priority 2000, published 2002).
Ends that are not written are not given here. amino resin = not defined here; spacer = not defined here

Key:
SV40 = assay type: binding, simian virus 40
[1] = biological target: alpha-1-proteinase inhibitor (API) (Homo sapiens, UniProt P01009); assay type: binding
PPV [2] = assay type: binding, porcine parvovirus
HAV [3] = assay type: binding, hepatitis A virus
PRV [4] = assay type: binding, pseudorabies virus
PPV [5] = assay type: binding, porcine parvovirus; remark: listed apart in the source
Polio Virus = assay type: binding, poliovirus
HAV [6] = assay type: binding, hepatitis A virus; remark: listed apart in the source
PRV [7] = assay type: binding, pseudorabies virus; conditions: peptide resin
HIV = assay type: binding, human immunodeficiency virus
BVDV = assay type: binding, bovine viral diarrhea virus

Sequence of alpha-1-proteinase inhibitor (API) (P01009 25-418): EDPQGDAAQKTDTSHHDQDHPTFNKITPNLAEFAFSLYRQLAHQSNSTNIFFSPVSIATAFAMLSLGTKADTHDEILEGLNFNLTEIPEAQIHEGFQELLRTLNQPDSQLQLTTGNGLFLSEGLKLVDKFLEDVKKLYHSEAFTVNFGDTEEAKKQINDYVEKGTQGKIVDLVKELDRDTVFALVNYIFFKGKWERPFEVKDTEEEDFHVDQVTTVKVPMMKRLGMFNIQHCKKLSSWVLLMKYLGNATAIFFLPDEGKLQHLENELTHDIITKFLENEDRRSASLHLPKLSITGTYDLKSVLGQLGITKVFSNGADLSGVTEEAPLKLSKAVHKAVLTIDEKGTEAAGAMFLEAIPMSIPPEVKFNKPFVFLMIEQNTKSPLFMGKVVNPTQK

FLLFQP: Table 1 sample 5 was tested, and the “Screen (positive bead, ligand identified for virus)” value (SV40) was “SV40”.

With LKRIEY: Table 2 sample 3 the “binding to API” value [1] was “API-binding”.

For FLLYAK: also Table 4 sample 46, the “binds PPV (sequences that bind to all three viruses)” value (PPV [2]) was “bind”, the “binds HAV (sequences that bind to all three viruses)” value (HAV [3]) was “bind” and the “binds PRV (sequences that bind to all three viruses)” value (PRV [4]) was “bind”.

In the case of SKNNAA: Table 2 sample 8, the “binding to API” value [1] is reported as “API-binding”.

For “Acetyl-FLLPYK: N-acetylated FLLPYK on resin (Ac-FLLPYK)”, the “logs reduction (clearance) of PPV in column flow-through” value (from here on “logs reduction (clearance) of PPV”) (PPV [5]) was “no clearance”.

NFZQNT: Table 2 sample 7 was tested, and the “binding to API” value [1] was “API-binding”.

With AQTFHD: Table 2 sample 1 the “binding to API” value [1] was “API-binding”.

With RDYDTD: Table 2 sample 2 the “binding to API” value [1] was “API-binding”.

For FLLIDA: Table 1 sample 8, the “Screen (positive bead, ligand identified for virus)” value (Polio Virus) was “Polio”.

In the case of “amino-FLLP: truncated peptide on resin (on resin)”, the “logs reduction (clearance) of PPV” value (PPV [5]) is reported as “no significant clearance”.

With “FLLPYK: consensus peptide synthesized onto amino resin with a spacer at the carboxy terminal (FLLPYK-{spacer-amino resin}; not fully specified; reading uncertain)” the “logs reduction (clearance) of PPV” value (PPV [5]) was “five”, the “binds HAV” value (HAV [6]) was “binds” and the “binds PRV” value (PRV [7]) was “binds”. The “binds HIV” value (HIV) was “binds” and the “binds BVDV” value (BVDV) was “binds”.

SDLRRL: Table 2 sample 4 was tested, and the “binding to API” value [1] was “API-binding”.

For VLYTNN: Table 2 sample 6, the “binding to API” value [1] was “API-binding”.

APPRTV: Table 2 sample 5 was tested, and the “binding to API” value [1] was “API-binding”.
